Measurements: patent publication US7838542B2, “Bicyclic compositions and methods for modulating a kinase cascade” (Kinex Pharmaceuticals, LLC, priority 2006, dated 2010)
Values joined by “and” are separate entries in the source; they are usually repeats but may differ in a detail not shown here. Identical values can stand only once. Values belong to the compound of their own block, whether it stands above or below them.

What was measured:
Chinchillas [1] = assay: Noise-induced hearing loss, round window application (Example 8); format: in vivo, chinchilla; parameters: threshold shift, 0.5 kHz / threshold shift, 1 kHz / threshold shift, 2 kHz / threshold shift, 4 kHz / threshold shift, 8 kHz / average threshold shift, 0.5 kHz / average threshold shift, 1 kHz / average threshold shift, 2 kHz / average threshold shift, 4 kHz / average threshold shift, 8 kHz: unit not given here; conditions: for average threshold shift, 0.5 kHz / average threshold shift, 1 kHz / average threshold shift, 2 kHz / average threshold shift, 4 kHz / average threshold shift, 8 kHz: Table XIV; for threshold shift, 0.5 kHz / threshold shift, 1 kHz / threshold shift, 2 kHz / threshold shift, 4 kHz / threshold shift, 8 kHz: individual animals, listed as CH65
Protocol: Chinchillas (N=8) were used in studies of noise-induced hearing loss. The animals' hearing sensitivity was measured using standard electrophysical techniques before the experimental manipulation. […] Animals were anesthetized, the auditory bullae were opened, and the left and right cochleas were visualized. The round window leading to the scala tympani of the cochlea was used as the access point for drug application. […] In each case, the solution was allowed to set on the round window for 30 minutes, then the auditory bullae were closed. Subsequently, the animals were exposed to 4 kHz band noise at 105 dB SPL for four hours. Following the noise exposure, the animals' hearing was tested at day 1, day 3, day 7, and day 20 to determine evoked potential threshold shifts. Permanent threshold shift was assessed at day 20. The cochleas were harvested at day 20 to allow for morphological examination of the cochleas.

Guinea pigs = assay: Cisplatin-induced hearing loss; format: in vivo, guinea pig; conditions: subcutaneous, prior to cisplatin
Protocol: The effects of high level noise and ototoxic drugs, such as cisplatin or the class of aminoglycosides, share several common features in the inner ear. First, the noise and/or drugs alter the free radical/antioxidant levels in the cochlea (inner ear). […] Guinea pigs (N=7) were used in studies of cisplatin-induced hearing loss. The animals' hearing sensitivity was measured using standard electrophysical techniques before the experimental manipulation. […] Animals were anesthetized and treated with cisplatin. Subsequently, the animals' hearing was tested to determine evoked potential threshold shifts.
Animals were treated subcutaneously with KX1-004 prior to the cisplatin-induced hearing loss.

Chinchillas [2] = assay: Noise-induced hearing loss, round window application (Example 12); format: in vivo, chinchilla; conditions: 4 kHz band noise at 105 dB SPL, four hours, day 1, 7, 21
Protocol: Chinchillas (N=6) were used in studies of noise-induced hearing loss. The animals' hearing sensitivity was measured using standard electrophysical techniques before the experimental manipulation. […] Animals were anesthetized, the auditory bullae were opened, and the left and right cochleas were visualized. The round window leading to the scala tympani of the cochlea was used as the access point for drug application. […] A control solution of 3 mM DMSO in […] of saline solution was placed on the round window of the other ear. The solution was allowed to set on the round window for 30 minutes, then the auditory bullae were closed. Subsequently, the animals were exposed to 4 kHz band noise at 105 dB SPL for four hours. Following the noise exposure, the animals' hearing was tested at day 1, day 7, and day 21 to determine evoked potential threshold shifts. Permanent threshold shift was assessed at day 21.

pp60^c-src [3] = target: T1, pp60^c-src (Homo sapiens, UniProt P12931); conditions: literature value; read-out: IC50 (μM), Lit; cited from earlier work
Target sequence in this assay (P12931 whole entry, species assumed): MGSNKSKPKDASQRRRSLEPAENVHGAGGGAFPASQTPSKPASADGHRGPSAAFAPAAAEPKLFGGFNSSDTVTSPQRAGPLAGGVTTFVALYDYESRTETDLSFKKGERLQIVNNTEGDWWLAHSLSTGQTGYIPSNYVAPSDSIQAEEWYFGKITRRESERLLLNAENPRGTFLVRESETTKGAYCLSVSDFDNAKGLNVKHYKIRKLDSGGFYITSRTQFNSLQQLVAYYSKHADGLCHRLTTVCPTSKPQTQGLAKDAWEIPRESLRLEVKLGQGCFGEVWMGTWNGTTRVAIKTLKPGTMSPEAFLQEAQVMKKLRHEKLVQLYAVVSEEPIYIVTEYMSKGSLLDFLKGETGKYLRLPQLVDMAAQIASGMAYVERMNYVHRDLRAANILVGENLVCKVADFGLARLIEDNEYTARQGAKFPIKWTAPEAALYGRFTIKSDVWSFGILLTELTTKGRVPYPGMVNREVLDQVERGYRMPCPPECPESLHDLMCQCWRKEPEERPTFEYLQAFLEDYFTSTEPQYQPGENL

pp60^c-src [4] = target: T1, pp60^c-src; assay: Src inhibition (RR-SRC phosphorylation), Cellular Mimetic assay; conditions: inhibitor 100 μM; Table IX
Target sequence in this assay (P12931 whole entry): as the sequence (P12931 whole entry, species assumed) above

Compound: O=C(NCc1cccc(O)c1)c1cc2cc(F)ccc2[nH]1 [KX1-004]
average threshold shift, 0.5 kHz (Chinchillas [1]; Day 1): 3.75
average threshold shift, 1 kHz (Chinchillas [1]; Day 1): 6.875
average threshold shift, 2 kHz (Chinchillas [1]; Day 1): 25
average threshold shift, 4 kHz (Chinchillas [1]; Day 1): 42
average threshold shift, 8 kHz (Chinchillas [1]; Day 1): 22.5
threshold shift, 0.5 kHz (Chinchillas [1]; Day 1): 0 (2×) and 5 and 10
threshold shift, 1 kHz (Chinchillas [1]; Day 1): 2.5 and 20 and 0 and 5
threshold shift, 2 kHz (Chinchillas [1]; Day 1): 0 and 25 and 20 and 55
threshold shift, 4 kHz (Chinchillas [1]; Day 1): 10 and 35 and 68 and 55
threshold shift, 8 kHz (Chinchillas [1]; Day 1): 0 and 30 and 35 and 25
average threshold shift, 0.5 kHz (Chinchillas [1]; Day 3): 5.4
average threshold shift, 1 kHz (Chinchillas [1]; Day 3): 6.9
average threshold shift, 2 kHz (Chinchillas [1]; Day 3): 18
average threshold shift, 4 kHz (Chinchillas [1]; Day 3): 27
average threshold shift, 8 kHz (Chinchillas [1]; Day 3): 15
threshold shift, 0.5 kHz (Chinchillas [1]; Day 3): 5 (3×) and 0 and 12
threshold shift, 1 kHz (Chinchillas [1]; Day 3): 7.5 and 5 and 2 and 0 and 20
threshold shift, 2 kHz (Chinchillas [1]; Day 3): 0 (2×) and 15 and 40 and 35
threshold shift, 4 kHz (Chinchillas [1]; Day 3): 10 and 0 and 25 and 55 and 45
threshold shift, 8 kHz (Chinchillas [1]; Day 3): 0 (2×) and 15 (2×) and 45
average threshold shift, 0.5 kHz (Chinchillas [1]; Day 7): 8
average threshold shift, 1 kHz (Chinchillas [1]; Day 7): 6
average threshold shift, 2 kHz (Chinchillas [1]; Day 7): 15
average threshold shift, 4 kHz (Chinchillas [1]; Day 7): 24
average threshold shift, 8 kHz (Chinchillas [1]; Day 7): 18
threshold shift, 0.5 kHz (Chinchillas [1]; Day 7): 0 and 5 and 8 and 15 and 12
threshold shift, 1 kHz (Chinchillas [1]; Day 7): 0 (3×) and 15 (2×)
threshold shift, 2 kHz (Chinchillas [1]; Day 7): 0 (2×) and 15 and 40 and 20
threshold shift, 4 kHz (Chinchillas [1]; Day 7): 0 and 5 and 15 and 55 and 45
threshold shift, 8 kHz (Chinchillas [1]; Day 7): 0 (2×) and 20 and 30 and 40
average threshold shift, 0.5 kHz (Chinchillas [1]; Day 20): 3
average threshold shift, 1 kHz (Chinchillas [1]; Day 20): 1.25
average threshold shift, 2 kHz (Chinchillas [1]; Day 20): 6.25
average threshold shift, 4 kHz (Chinchillas [1]; Day 20): 9
average threshold shift, 8 kHz (Chinchillas [1]; Day 20): 3.75
threshold shift, 0.5 kHz (Chinchillas [1]; Day 20): 0 (2×) and 5 and 7
threshold shift, 1 kHz (Chinchillas [1]; Day 20): 0 (3×) and 5
threshold shift, 2 kHz (Chinchillas [1]; Day 20): 0 (2×) and 15 and 10
threshold shift, 4 kHz (Chinchillas [1]; Day 20): 0 (2×) and 11 and 25
threshold shift, 8 kHz (Chinchillas [1]; Day 20): −5 and 5 and 0 and 15
average threshold shift, 0.5 kHz (Chinchillas [1]; Pretest): 26.6
average threshold shift, 1 kHz (Chinchillas [1]; Pretest): 24.5
average threshold shift, 2 kHz (Chinchillas [1]; Pretest): 20
average threshold shift, 4 kHz (Chinchillas [1]; Pretest): 12.4
average threshold shift, 8 kHz (Chinchillas [1]; Pretest): 4
threshold shift, 0.5 kHz (Chinchillas [1]; Pretest): 30 and 35 and 25 and 20 and 23
threshold shift, 1 kHz (Chinchillas [1]; Pretest): 22.5 and 25 (4×)
threshold shift, 2 kHz (Chinchillas [1]; Pretest): 25 (3×) and 10 and 15
threshold shift, 4 kHz (Chinchillas [1]; Pretest): 20 and 10 and 12 and 5 and 15
threshold shift, 8 kHz (Chinchillas [1]; Pretest): 10 (2×) and 0 (3×)
protection against the noise exposure (Chinchillas [1]; in vivo, listed as CH-65): provided protection against the noise exposure
protection against cisplatin-induced hearing loss (Guinea pigs): protected against ciplatin-induced hearing loss
average dB threshold shifts, treated ears versus control (Chinchillas [2]): lower

% Inhibition at 100 μM (std. dev.) (pp60^c-src [4]): 37 (+/−5) %
Compound: CCOc1cc(/C=C(\C#N)C(N)=O)cc(CSc2ccccc2)c1O [ST-638, reference compound]
IC50 (pp60^c-src [3]): 18 µM
